Experimental data: US20260182575A1, “MOLECULES HAVING PESTICIDAL UTILITY AND INTERMEDIATES AND PROCESSES RELATED THERETO” (CORTEVA AGRISCIENCE LLC, priority 2022, published 2026)
Where “and” joins values, the source holds several entries; their conditions need not be identical. Identical values can stand only once.

Legend:
Format in all cases: in vivo
[1] = test system: Sweet Potato Whitefly (Bemisia tabaci, BEMITA, SPW); test: Bioassay 2: sweet potato whitefly, cotton seedling foliar spray; conditions: AI alone
Description: Stock solutions were prepared with F1 as well as for each of the active ingredients individually. Test solutions were prepared from the stock solutions. Test solutions were prepared containing F1, the individual active ingredients, and mixtures of F1 with each of the active ingredients. The test solutions for F1 and the individual active ingredients were prepared by adding 500 μL of stock solution to a 25 mL glass vial, then adding 500 μL of acetone, followed by the addition of 9 mL water with 0.025% Tween® 20 to create a 0.001% (w/v) solution. The test solutions containing mixtures of F1, and the individual active ingredients were prepared by adding 500 μL of the active ingredient stock solution to a 25 mL glass vial, followed by 500 μL of the F1 stock solution, then by the addition of 9 mL water with 0.025% Tween® 20 to create a test solution containing 0.001% (w/v) F1 and 0.001% (w/v) of the active ingredient. Each test solution was serially diluted to create desired doses of test solutions (0.001% (w/v), 0.0001% (w/v), 0.00001% (w/v), 0.000001% (w/v), 0.0000001% (w/v), and 0.00000001% (w/v)).
The test solutions were tested against SPW using the following procedure: Cotton seedlings grown in 3-inch pots, pruned so that only one true leaf remained, were used as test substrate. Adult B. tabaci were allowed to colonize the cotton plants and lay eggs for 24 hours after which all adults were removed from the plants using compressed air. Plants were monitored for egg development, and when crawler emergence was underway (>25% emergence based on visual examination using a microscope), the plants were sprayed using the test solutions and methods described above for green peach aphids (GPA). Treated plants were held in a holding room at approximately 25° C. and ambient relative humidity (RH) prior to grading. Evaluation was conducted by counting the number of developed 2-3 instar nymphs per plant under a microscope 7-9 days after treatment. Percent control was measured using Abbott's correction formula (W. S. Abbott, J. Econ. Entomol. 18 (1925), pp. 265-267) as follows:
where X=No. of live nymphs on solvent check plants and Y=No. of live nymphs on treated plants. In Table B2 the “Expected % Control” was calculated using the method described in Colby S. R., Weeds, 1967, 15, 20-22. Bioassay 3: Western Flower Thrips (Frankliniella occidentalis, FRANOC, “WFT”).

[2] = test system: Beet Armyworm (Spodoptera exigua, LAPHEG, BAW); test: Bioassay 7: beet armyworm, artificial diet, 96 well plate
[3] = test system: Sweet Potato Whitefly (Bemisia tabaci, BEMITA, SPW); test: Bioassay 2: sweet potato whitefly, cotton seedling foliar spray; conditions: F1 alone
[4] = test system: Fall Armyworm (Spodoptera frugiperda, LAPHFR, FAW); test: Bioassay 7: fall armyworm, artificial diet, 96 well plate
Description: (§1) The test solutions were tested against CEW, FAW, BAW, and SBL using the following procedure: an artificial lepidopteran diet (Multispecies Lepidopteran Diet, Southland Products) was distributed in 96 well plate. Twenty μL of test solution was pipetted onto a cell in the bioassay plate. […] Each treatment was replicated 5 times for each species. Approximately five first instar CEW, FAW, BAW, or SBL larva were placed on top of the diet in each cell and was contained with a clear perforated adhesive lid. Test trays were held at approximately 25° C. and ambient relative humidity prior to grading. After five days, the number of cells where all the larvae were dead were recorded as 100% and averaged across all replicates; then the percent control was measured using Abbott's correction formula (W. S. Abbott, J. Econ. Entomol. 18 (1925), pp. 265-267) as follows:
(§2) where X=No. of live larvae on solvent check and Y=No. of live larvae on treated diet. In Table 7 the “Expected % Control” was calculated using the method described in Colby S. R., Weeds, 1967, 15, 20-22. Bioassay 8: Western Corn Rootworm (Diabrotica virgifera virgifera, DIABVI, “WCR”)

[5] = test system: Corn Earworm (Helicoverpa zea, HELIZE, CEW); test: Bioassay 7: corn earworm, artificial diet, 96 well plate
[6] = test system: Soybean Looper (Chrysodeixis includens, PSEPIN, SBL); test: Bioassay 7: soybean looper, artificial diet, 96 well plate; conditions: CL; F1 alone at 0.000005 wt %
Description: as §1, §2

[7] = test system: Western Corn Rootworm (Diabrotica virgifera virgifera, DIABVI, WCR); test: Bioassay 8: western corn rootworm, soil drench, corn root protection; conditions: F1 alone, DIABVI (CRW), 10 mL soil drench, corn nodal root length after 13 days
Description: Corn seeds were planted in steam pasteurized soil filled greenhouse pots. Western corn rootworm Diabrotica virgifera virgifera eggs supplied from the Corteva Agriscience in Johnston, IA US, were suspended in a 0.08% agar solution added into the soil. Stock solutions of F1 and active ingredients were prepared at a concentration of either 250 or 500 ugai/10 mL for F1 and active ingredients at the ratios of (F1:AI) 1:0.004; 1:0.01; 1:0.02; 1:0.04; 1:0.08; 1:0.1; 1:0.15; 1:0.2; 1:0.4; 1:2; or 1:4, using a 1:1 solution of acetone:water as a diluent. A soil application of solutions were applied as a 10 mL drench over the soil. Plants were grown in the greenhouse for 13 days at 25 C after which the roots were removed from the soil, washed, and measured to determine the length of the median nodal roots. The measured lengths were compared to the infested and un-infested untreated checks to determine the mean percent control offered to protect the corn roots.

Structure (SMILES) | Average % Control AI ([1]; Wt % AI 0.00001, 7-9 days) [%] | Average % Control F1 ([2]; F1 alone at 0.0000025 wt %) [%] | Average % Control F1 ([2]; F1 alone at 0.00001 wt %) [%] | Average % Control F1 ([3]; F1 0.1, 7-9 days after treatment) [%] | Average % Control F1 ([3]; F1 10, 7-9 days after treatment) | Average % Control F1 ([4]; F1 alone at 0.0000025 wt %) [%] | Average % Control F1 ([4]; F1 alone at 0.000005 wt %) [%] | Average % Control F1 ([5]; F1 alone at 0.00002 wt %) [%] | Average % Control F1 ([5]; F1 alone at 0.00004 wt %) | Average % Control F1 [6] [%] | Average % Control F1 ([7]; UgActive F1 250) | Average % Control F1 ([7]; UgActive F1 500) [%] | Average % Control AI ([1]; Wt % AI 0.000001, 7-9 days) [%]
C[C@]1(COC(=O)C2CC2)[C@@H]2C[C@H](O)[C@@]3(C)Oc4cc(-c5cccnc5)oc(=O)c4[C@H](O)[C@@H]3[C@@]2(C)CC[C@@H]1OC(=O)C1CC1 [Afidopyropen] | 0.0 | – | – | – | – | – | – | – | – | – | – | – | –
Cc1ccc(COCC(F)(F)F)c(N2C(=O)CS/C2=N\C(=O)Nc2ccc(-c3ncn(-c4ccc(OC(F)(F)F)cc4)n3)cc2F)c1 [F1] | – | 12.5 | 40.0 | 0.0 | 37.4% and 50.1% | 0.0 | 62.5 | 0.0 | 62.5% and 50.0% | 80.0 | 97.8% and 88.8% | 83.9 | –
CN1COCN(Cc2cnc(Cl)s2)/C1=N\[N+](=O)[O-] [Thiamethoxam] | 35.9 | – | – | – | – | – | – | – | – | – | – | – | 5.8
